Reference: patent publication US12115213B2, “Methods of treating fungal infections” (priority 2016, dated 2024)
Peptide text beside a SMILES is read from it. * marks the point of attachment. Cbz = O=C(OCc1ccccc1)*

Test system: wild-type H99 strain
Experiment: Proteasome inhibitor / SDS sensitivity growth assay
Type: cell-based, Cryptococcus neoformans
Conditions: for growth of wild type and complemented strain with SDS and proteasome inhibitor: YPD with 0.025% SDS plus inhibitor
Protocol: For SDS sensitivity testing, SDS was added to YPD to a final concentration of 0.2% (wt/vol), and 2× serial dilutions were prepared in 96-well plates. Cells of H99, the fbp1Δ mutant, and its complemented strain were added to the wells to a final optical density at 600 nm (OD600) of 0.01. The plates were kept at 30° C., and the OD600 was measured every 24 h. […] Twofold serial dilutions were prepared in 96-well plates. The wild-type H99 strain was added to the well containing proteasome inhibitors (MG132 or […]) and SDS to a final OD600 of 0.01. The fbp1Δ mutant was added to YPD with 0.025% SDS only to a final OD600 of 0.01. The growth of cultures was determined by measuring the OD600 every 24 h.
To test whether SDS sensitivity is regulated by the SCF(Fbp1) E3 ligase function, the effects of proteasome inhibitors on Cryptococcus SDS sensitivity was investigated. Fungal growth rates of the wild-type H99 strain, the fp1Δ mutant, and its complemented strain on YPD medium containing 0.025% SDS were determined in the absence or presence of the proteasome inhibitor MG132 or PS-341. MG132 is a cell-permeative proteasome inhibitor which can reduce the degradation of ubiquitin-conjugated proteins by the 26S complex without affecting its ATPase or isopeptidase activity. PS-341 is a potent and reversible proteasome inhibitor that functions to […]. […] Therefore, without wishing to be bound by theory, certain substrates of Fbp1 may also participate in regulation of cell membrane integrity.

SMILES | effect on growth of the wild-type strain or the mutant, inhibitor alone (25 μM MG132, YPD without SDS) | growth of wild type and complemented strain with SDS and proteasome inhibitor | effect on growth of the wild-type strain or the mutant, inhibitor alone (100 μM PS-341, YPD without SDS)
CC(C)C[C@@H](C=O)NC(=O)[C@H](CC(C)C)NC(=O)[C@H](CC(C)C)NC(=O)OCc1ccccc1 [MG132] (Cbz-Leu-Leu-Leu-aldehyde) | Neither 25 μM MG132 nor 100 μM PS-341 alone affected the growth | significant growth defect | –
CC(C)C[C@H](NC(=O)[C@H](Cc1ccccc1)NC(=O)c1cnccn1)B(O)O [PS-341] | – | significant growth defect | Neither 25 μM MG132 nor 100 μM PS-341 alone affected the growth
